Biological target: T1, human TREM2 (Homo sapiens, UniProt Q9NZC2)
T1 construct: expressed in transfected cells; host or cells: HEK293T
Assay: TREM2 agonist potency by cellular phosphorylation of Syk (AlphaLisa) in HEK293T-hTREM2 cells
Type: cell-based
Procedure: In Vitro Measurement of Triggering Receptor Expressed on Myeloid Cells 2 Activity Using Cellular Phosphorylation of Spleen Tyrosine Kinase (“Syk”) Assays
Measurement of TREM2 agonist potency was done using a HEK cell line expressing human TREM2 and DAP12 (HEK293T-hTREM2 cells). Binding of small molecules to, and activation of, TREM2 increases the phosphorylation of Syk. The resultant levels of Syk phosphorylation are measured using a commercial AlphaLisa reagent kit. To perform the assay, HEK-hTREM2 cells were plated at 14,000 cells per well in a 384 well plate, in 25 μL of complete growth media and incubated at 37° C., 5% CO2 for 20-24 hours.
Prior to the assay, test compounds were diluted in the 384 well plates in assay buffer and allowed to equilibrate for 30 minutes. Growth media was removed from cell plates by inversion on blotting paper, and 25 μL of test articles in assay buffer was added to cells. Cells were incubated for 45 minutes at room temperature. After 45 minutes, assay buffer was removed and 10 μL of lysis buffer was added. Plates were shaken for 20 minutes at 350 RPM at room temperature. After complete lysis, AlphaLisa reagents were added to the lysate, and fluourescence intensity was measured using a Perkin Elmer Envision plate reader. Intensities were used to generate a standard curve, and % activation was calculated. Curve fitting was performed using Prism v9 software, log(agonist) vs response-variable slope (four parameters), and EC50s were calculated from the curve fit.
This assay may be used to test any of the compounds described herein to assess and characterize a compound's ability to act as an agonist of TREM2.

[1] = HEK293 cells expressing human TREM2 and DAP12, Table D-2
[2] = HEK293 cells expressing human TREM2 and DAP12, Table D

T1 sequence (Q9NZC2 19-230): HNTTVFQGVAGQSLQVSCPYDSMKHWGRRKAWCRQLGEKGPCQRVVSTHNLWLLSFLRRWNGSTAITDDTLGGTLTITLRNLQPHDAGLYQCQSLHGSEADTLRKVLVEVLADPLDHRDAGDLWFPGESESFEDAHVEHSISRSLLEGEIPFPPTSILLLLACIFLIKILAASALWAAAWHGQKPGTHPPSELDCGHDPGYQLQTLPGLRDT
T1 sequence (O43914 22-113 partner): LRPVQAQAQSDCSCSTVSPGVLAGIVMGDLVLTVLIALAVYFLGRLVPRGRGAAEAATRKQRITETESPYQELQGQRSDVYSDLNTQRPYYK

EC50 [1] | EC50 [2] | SMILES
< 50 nM |  | Cc1nc2nc(N3C[C@@H](C4CC4)O[C@@H](c4cnn(C)c4)C3)nc(-c3ccc(F)cc3F)c2nc1C [Example I-1673, (2R,6S)-2-cyclopropyl-4-[4-(2,4-difluorophenyl)-6,7-dimethyl-pteridin-2-yl]-6-(1-methylpyrazol-4-yl)morpholine]
50 to 500 nM |  | Cc1nc2nc(-c3cc(-c4cnn(C5CC5)c4)c(=O)n(C)c3)nc(-c3ccc(F)cc3F)c2nc1C [Example I-1461, 3-(1-cyclopropyl-1H-pyrazol-4-yl)-5-(4-(2,4-difluorophenyl)-6,7-dimethylpteridin-2-yl)-1-methylpyridin-2(1H)-one]
500 to 3000 nM |  | Cc1nc2nc(-c3ccc(Cl)cc3F)cc(N3C[C@@H](C)O[C@@H](c4cnn(C5CC5)c4)C3)c2nc1C [Example I-1081, (2S,6R)-4-[6-(4-chloro-2-fluoro-phenyl)-2,3-dimethyl-pyrido[2,3-b]pyrazin-8-yl]-2-(1-cyclopropylpyrazol-4-yl)-6-methyl-morpholine]
 | < 50 nM | COc1ccc([C@H]2C[C@@H](c3nc(C45CC(C(F)(F)F)(C4)C5)c4nc(C)c(C)nc4n3)CCO2)cn1 [Example 141, 2-((2R,4S)-2-(6-methoxypyridin-3-yl)tetrahydro-2H-pyran-4-yl)-6,7-dimethyl-4-(3-(trifluoromethyl)bicyclo[1.1.1]pentan-1-yl)pteridine]
50 to 500 nM |  | Cc1cc([C@H]2CN(c3nc(-c4ccc(Cl)cc4F)c4nc(C)c(C)nc4n3)CCO2)no1 [Example I-1510, (2R)-4-[4-(4-chloro-2-fluoro-phenyl)-6,7-dimethyl-pteridin-2-yl]-2-(5-methylisoxazol-3-yl)morpholine]
 | < 50 nM | Cc1nc2nc([C@H]3CCO[C@@H](c4cnn(CCF)c4)C3)nc(-c3ccc(F)cc3F)c2nc1C [Example 150, 4-(2,4-difluorophenyl)-2-((2R,4S)-2-(1-(2-fluoroethyl)-1H-pyrazol-4-yl)tetrahydro-2H-pyran-4-yl)-6,7-dimethylpteridine]
50 to 500 nM |  | Cc1nc2nc(N3C[C@@H](CO)O[C@@H](c4cnn(C5CC5)c4)C3)nc(-c3ccc(F)cc3F)c2nc1C [Example I-1333, [(2S,6S)-6-(1-cyclopropylpyrazol-4-yl)-4-[4-(2,4-difluorophenyl)-6,7-dimethyl-pteridin-2-yl]morpholin-2-yl]methanol]
 | < 50 nM | Cc1cc([C@H]2C[C@@H](c3nc(-c4cc(F)c(Cl)c(F)c4)c4nc(C)c(C)nc4n3)CCO2)ccn1 (racemic) [Example 84, 4-(4-chloro-3,5-difluoro-phenyl)-6,7-dimethyl-2-[(2R,4S)-2-(2-methyl-4-pyridyl)tetrahydropyran-4-yl]pteridine]
50 to 500 nM |  | Cc1nc2nc(C3CCS(=O)(=O)N(c4cnn(C5CC5)c4)C3)nc(-c3ccc(Cl)cc3F)c2nc1C (racemic) [Example I-1733, 4-[4-(4-chloro-2-fluoro-phenyl)-6,7-dimethyl-pteridin-2-yl]-2-(1-cyclopropylpyrazol-4-yl)thiazinane 1,1-dioxide]
 | 500 to 3000 nM | Cc1cnc2c(C34CC(C(F)(F)F)(C3)C4)nc([C@H]3C[C@@H](C)O[C@@H](c4cnn(C5CC5)c4)C3)nc2n1 [Example 140, 2-((2R,4S,6R)-2-(1-cyclopropyl-1H-pyrazol-4-yl)-6-methyltetrahydro-2H-pyran-4-yl)-7-methyl-4-(3-(trifluoromethyl)bicyclo[1.1.1]pentan-1-yl)pteridine]
< 50 nM |  | Cc1nc2nc(C3CCO[C@@H](c4cnn(C5CC5)c4)C3)nc([C@H]3C[C@@H](C(F)(F)F)C3)c2nc1C (stereo partly drawn) [Example I-1414, 2-[(2R)-2-(1-cyclopropylpyrazol-4-yl)tetrahydropyran-4-yl]-6,7-dimethyl-4-[3-(trifluoromethyl)cyclobutyl]pteridine]
< 50 nM |  | Cc1nc2nc(C3CCO[C@@H](c4cnn(C5CC5)c4)C3)nc([C@H]3C[C@H](C(F)(F)F)C3)c2nc1C (stereo partly drawn) [Example I-1432, 2-[(2R)-2-(1-cyclopropylpyrazol-4-yl)tetrahydropyran-4-yl]-6,7-dimethyl-4-[3-(trifluoromethyl)cyclobutyl]pteridine]
< 50 nM |  | [2H]C([2H])([2H])c1nc2nc(N3C[C@@H](C)O[C@@H](c4cnn(C5CC5)c4)C3)nc(-c3ccc(F)cc3F)c2nc1C([2H])([2H])[2H] [Example I-1129, (2S,6R)-2-(1-cyclopropylpyrazol-4-yl)-4-[4-(2,4-difluorophenyl)-6,7-bis(trideuteriomethyl)pteridin-2-yl]-6-methyl-morpholine]
500 to 3000 nM |  | COC1(c2nc(-c3ccc(Cl)cc3F)c3nc(C)c(C)nc3n2)CCO[C@@H](c2cnn(C3CC3)c2)C1 (stereo partly drawn) [Example I-1210, 4-(4-chloro-2-fluorophenyl)-2-((2R)-2-(1-cyclopropyl-1H-pyrazol-4-yl)-4-methoxytetrahydro-2H-pyran-4-yl)-6,7-dimethylpteridine]
 | 50 to 500 nM | Cc1nc2nc(N3CCN(C)[C@@H](c4cnn(C5CC5)c4)C3)nc(-c3ccc(Cl)cc3F)c2nc1C [Example 206, (S)-4-(4-chloro-2-fluorophenyl)-2-(3-(1-cyclopropyl-1H-pyrazol-4-yl)-4-methylpiperazin-1-yl)-6,7-dimethylpteridine]
< 50 nM |  | COc1nc2c(-c3ccc(Cl)cc3F)nc([C@@H]3CCO[C@H](c4cnn(C5CC5)c4)C3)nc2nc1C (racemic) [Example I-1221, 4-(4-chloro-2-fluoro-phenyl) −6-methoxy-7-methyl-2-[rac-(2S,4R)-2-(1-cyclopropylpyrazol-4-yl)tetrahydropyran-4-yl]pteridine]
 | < 50 nM | Cc1ccc2c(-c3cc(F)c(Cl)cc3F)nc([C@H]3CCO[C@@H](c4cnn(C5CC5)c4)C3)nc2n1 [Example 219, 4-(4-chloro-2,5-difluorophenyl)-2-((2R,4S)-2-(1-cyclopropyl-1H-pyrazol-4-yl)tetrahydro-2H-pyran-4-yl)-7-methylpyrido[2,3-d]pyrimidine]
 | 50 to 500 nM | Cc1nc2nc([C@H]3CCO[C@@H](c4cnn(C5CC5)n4)C3)nc(-c3ccc(F)cc3F)c2nc1C [Example 155, 2-((2R,4S)-2-(2-cyclopropyl-2H-1,2,3-triazol-4-yl)tetrahydro-2H-pyran-4-yl)-4-(2,4-difluorophenyl)-6,7-dimethylpteridine]
 | 50 to 500 nM | COc1ccc([C@@H]2C[C@H](c3nc(-c4ccc(F)cc4F)c4nc(C)c(C)nc4n3)CCO2)cn1 [Example 162, 4-(2,4-difluorophenyl)-2-((2S,4R)-2-(6-methoxypyridin-3-yl)tetrahydro-2H-pyran-4-yl)-6,7-dimethylpteridine]
 | 50 to 500 nM | Cc1nc2nc(-c3ccc(Cl)cc3F)cc([C@@H]3CCO[C@@H](c4cnn(C5CC5)c4)C3)c2nc1C [Example 236, 6-(4-chloro-2-fluorophenyl)-8-((2R,4R)-2-(1-cyclopropyl-1H-pyrazol-4-yl)tetrahydro-2H-pyran-4-yl)-2,3-dimethylpyrido[2,3-b]pyrazine]
 | 3000 to 100000 nM | Cc1nc2cc([C@@H]3CCO[C@@H](c4cnn(C5CC5)c4)C3)cc(-c3ccc(Cl)cc3F)c2nc1C [Example 230, 5-(4-chloro-2-fluorophenyl)-7-((2R,4R)-2-(1-cyclopropyl-1H-pyrazol-4-yl)tetrahydro-2H-pyran-4-yl)-2,3-dimethylquinoxaline]
50 to 500 nM |  | Cc1nc2nc(N3CCO[C@H](c4cnn5c4CCC5)C3)nc(-c3ccc(F)cc3F)c2nc1C [Example I-1529, (2R)-4-[4-(2,4-difluorophenyl)-6,7-dimethyl-pteridin-2-yl]-2-(5,6-dihydro-4H-pyrrolo[1,2-b]pyrazol-3-yl)morpholine]
